Like-named read-outs stand apart in the source and are kept apart here.
Columns and labels:
mouse DOR (mDOR) = mouse DOR (mDOR) (Mus musculus (Mouse), UniProt P32300); assay: G-protein BRET functional opioid assay, DOR; format: cell-based; details: for Emax: normalized to DPDPE, read-out: % of control agonist maximal response (DOR)
Description: (§1) HEK-293T cells were obtained from the American Type Culture Collection (Rockville, MD) and were cultured in a 5% CO2 atmosphere at 37° C. in Dulbecco's Modified Eagle Medium (high glucose #11965; Life Technologies Corp.; Grand Island, NY) supplemented with 10% FBS (Premium Select, Atlanta Biologicals; Atlanta, GA), 100 U/mL penicillin, and 100 μg/mL streptomycin (#15140, Life Technologies). DNA Constructs: The mouse MOR (mMOR), the mouse DOR (mDOR) and the rat KOR (rKOR) were provided by Dr Lakshmi Devi at Mount Sinai School of Medicine. The G proteins used included untagged GαoB with Renilla luciferase 8 (RLuc8) inserted at position 91 (GαoB-RLuc8); Gβ1 (β1); Gγ2 which was fused to the full-length mVenus at its N-terminus via the amino acid linker GSAGT (mVenus-γ2). All constructs were sequence confirmed prior to use in experiments.
(§2) Transfection: The following cDNA amounts were transfected into HEK-293T cells (5×10^6 cells/plate) in 10-cm dishes using polyethylenimine (PEI) in a 1:1 ratio (diluted in Opti-MEM, Life Technologies): 2.5 μg MOR/DOR/KOR, 0.125 μg GαoBRLuc8, 6.25 μg (1, 6.25 μg mVenus-γ2. Cells were maintained in the HEK-293T media described above. After 24 hours the media was changed, and the experiment was performed 24 hours later (48 hours after transfection). BRET: Transfected cells were dissociated and re-suspended in phosphate-buffered saline (PBS). Approximately 200,000 cells/well were added to a black-framed, white-well, 96-well plate (#60050; Perkin Elmer; Waltham, MA). The microplate was centrifuged and the cells were resuspended in PBS. After 5 minutes, 5 μM of the luciferase substrate coelenterazine H was added to each well. After 5 minutes, ligands were added and the BRET signal was measured 5 minutes later on a PHERAstar FS plate reader. The BRET signal was quantified by calculating the ratio of the light emitted by the energy acceptor, mVenus (510-540 nm), over the light emitted by the energy donor, RLuc8 (485 nm). This drug-induced BRET signal was normalized using the Emax of a known agonist (DAMGO, DPDPE or U-50,488) as the maximal response at MOR/DOR/KOR. Data were analyzed using the dose-response-stimulation nonlinear curve fitting model (log[agonist] vs. response (three parameters)).

mouse MOR (mMOR) = mouse MOR (mMOR) (Mus musculus (Mouse), UniProt P42866); assay: G-protein BRET functional opioid assay, MOR; format: cell-based; details: for Emax: normalized to DAMGO, read-out: % of control agonist maximal response (MOR)
Description: as §1, §2

rat KOR (rKOR) = rat KOR (rKOR) (Rattus norvegicus (Rat), UniProt P34975); assay: G-protein BRET functional opioid assay, KOR; format: cell-based; details: for Emax: normalized to U-50,488, read-out: % of control agonist maximal response (KOR)
Description: as §1, §2

KOR = KOR (Rattus norvegicus (Rat), UniProt P34975); assay: KOR agonist (cAMP) assay, CHO cells (commercial); format: cell-based; details: for Emax at 10 µM / Emax: read-out: % of control agonist maximal response (KOR)
From the text: (§3) Potency (IC50 and EC50) and efficacy values for hERG, rKOR-CHO, hMOR-CHO, h5-HT2A-HEK, h5-HT2B-CHO, h5-HT2C HEK were obtained by screening the selected compounds via commercially available assay services.

5-HT2B = 5-HT2B (Homo sapiens (Human), UniProt P41595); assay: 5-HT2B agonist (IP1) assay, CHO cells (commercial); format: cell-based; details: for Emax at 10 µM: CHO, read-out: % of control agonist maximal response (5-HT2B); for EC50: IP1 agonist assay
From the text: as §3

5-HT2A = 5-HT2A (Homo sapiens (Human), UniProt P28223); assay: 5-HT2A agonist (IP1) assay, HEK-293 cells (commercial); format: cell-based; details: for Emax at 10 µM: HEK293, read-out: % of control agonist maximal response (5-HT2A); for EC50: IP1 agonist assay
From the text: as §3

5-HT2C = 5-HT2C (Homo sapiens (Human), UniProt P28335); assay: 5-HT2C agonist (IP1) assay, HEK-293 cells (commercial); format: cell-based; details: for Emax at 10 µM: HEK293, read-out: % of control agonist maximal response (5-HT2C); for EC50: IP1 agonist assay
From the text: as §3

hERG = hERG (Homo sapiens (Human), UniProt Q12809); assay: hERG radioligand ([3H]Dofetilide) displacement binding assay (commercial); details: for IC50: [3H]Dofetilide displacement
From the text: as §3

hSERT = hSERT (Homo sapiens (Human), UniProt P31645); assay: hSERT fluorometric screening assay (APP+ uptake, hSERT-HEK cells); format: cell-based; details: average ± SEM, n ≥ 4; read-out: IC50 SERT [μM ± SEM]
Description: (§4) Inhibition assays of transporters (hSERT and rVMAT2) were performed according to the following protocol.
(§5) Stably transfected hSERT-HEK and rVMAT2-HEK cellular cultures were maintained in Dulbecco's Minimal Essential Medium (DMEM) with GlutaMAX (Gibco) with the following additions: 10% (v/v) Fetal Bovine Serum (FBS, Atlanta Biologicals), 100 U/mL Penicillin (Gibco), and 10 μg/mL Streptomycin (Gibco). With regards to the former cell lineage, an additional ingredient, 500 μg/mL Geneticin (G418) (Gibco) was included to preserve the respective transgene.
(§6) For both hSERT and rVMAT2 screening experiments, respective singly transfected cells were seeded at a density of 0.09×10^6 cells/well in poly-D-Lysine (Alamanda Polymers, Inc.) coated white solid-bottom 96-well plates (Costar). Growth was permitted for approximately 44 hours in said aqueous media and at an incubation environment of 37° C. and 5% Carbon Dioxide. At the beginning of the experiment, the cellular growth solution was aspirated, and individual cells were rinsed with 150 μL of 1×Dulbecco's Phosphate Buffered Saline (PBS; HyClone). 63 μL of Experimental Media (consisting of the following contents: DMEM without phenol red but with 4.5 g/L of D-Glucose (Gibco), 1% (v/v) FBS (Atlanta Biologicals), 100 U/mL Penicillin (Gibco), and 10 μg/mL Streptomycin (Gibco)) with 2×tiered concentrations of inhibitor (or DMSO, the vehicle of these experiments) were added to the respective wells. Control inhibitors used in these studies include Imipramine for hSERT experiments, and Reserpine for rVMAT2 experiments (Eiden, L. E. and Weihe, E. 2011; Sette, M. et al. 1983). At the conclusion of the pre-incubation period (60 minutes for hSERT experiments and 30 minutes for rVMAT2 experiments), 63 μL of Experimental Media containing 2×various concentrations of tested inhibitor (or vehicle) along with a specified amount of fluorescent substrate, APP^+ (Karpowicz, R. J. et al 2013) (final concentration: 1.1 μM for hSERT experiments) or FFN206 (Hu, G. et al. 2013) (final concentration: 0.75 μM for rVMAT2 experiments) were added to the present solution contained within the wells. […] A final solution of 120 μL of PBS is finally added to all corresponding wells for cell maintenance before undergoing fluorescence uptake reading by a BioTek H1MF plate reader. […]
(§7) Numerical analysis of the collected experimental data preceded as accordingly. Respective inhibitor values were first subtracted from vehicular values to quantify the respective fluorescence uptake. This metric was then analyzed using the dose-response-inhibitor nonlinear curve fitting model ([inhibitor] vs response (three parameters)) as supplied by GraphPad Prism 8 software. […]

rVMAT2 = rVMAT2 (Rattus norvegicus (Rat), UniProt Q01827); assay: rVMAT2 fluorometric screening assay (FFN206 uptake, rVMAT2-HEK cells); format: cell-based; details: average ± SEM, n ≥ 4; read-out: IC50 VMAT2 [μM ± SEM]
Description: as §4, §5, §6, §7

[1] = Table 2, cAMP agonist assay, rat KOR, CHO

5-HT2C, sequence (P28335 whole entry, looked up): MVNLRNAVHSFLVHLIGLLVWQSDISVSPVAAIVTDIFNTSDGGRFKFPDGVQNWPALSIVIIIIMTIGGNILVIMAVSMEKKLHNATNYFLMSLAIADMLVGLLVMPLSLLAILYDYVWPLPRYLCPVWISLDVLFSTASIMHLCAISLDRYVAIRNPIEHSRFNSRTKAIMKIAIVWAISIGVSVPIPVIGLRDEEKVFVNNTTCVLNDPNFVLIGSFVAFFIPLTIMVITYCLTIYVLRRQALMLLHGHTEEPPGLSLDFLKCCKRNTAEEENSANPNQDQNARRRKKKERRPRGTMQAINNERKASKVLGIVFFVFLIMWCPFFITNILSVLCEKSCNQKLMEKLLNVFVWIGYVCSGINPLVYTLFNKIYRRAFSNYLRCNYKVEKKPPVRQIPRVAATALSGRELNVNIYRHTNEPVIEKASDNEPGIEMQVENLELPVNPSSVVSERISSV
rVMAT2, sequence (Q01827 whole entry): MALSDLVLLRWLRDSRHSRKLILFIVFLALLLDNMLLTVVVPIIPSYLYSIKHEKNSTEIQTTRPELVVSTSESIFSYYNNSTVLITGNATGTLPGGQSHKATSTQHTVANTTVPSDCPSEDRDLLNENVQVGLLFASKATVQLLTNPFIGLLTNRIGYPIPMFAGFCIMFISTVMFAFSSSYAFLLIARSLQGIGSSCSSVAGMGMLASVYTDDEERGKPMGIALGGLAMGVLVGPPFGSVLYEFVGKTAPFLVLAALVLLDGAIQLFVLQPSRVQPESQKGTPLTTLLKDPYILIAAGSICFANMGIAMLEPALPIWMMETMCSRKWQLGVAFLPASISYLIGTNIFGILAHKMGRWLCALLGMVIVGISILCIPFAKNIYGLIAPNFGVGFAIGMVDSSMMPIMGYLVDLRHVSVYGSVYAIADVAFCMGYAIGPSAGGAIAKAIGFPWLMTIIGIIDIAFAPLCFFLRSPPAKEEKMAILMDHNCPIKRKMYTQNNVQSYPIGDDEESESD
mouse MOR (mMOR), sequence (P42866 whole entry, looked up): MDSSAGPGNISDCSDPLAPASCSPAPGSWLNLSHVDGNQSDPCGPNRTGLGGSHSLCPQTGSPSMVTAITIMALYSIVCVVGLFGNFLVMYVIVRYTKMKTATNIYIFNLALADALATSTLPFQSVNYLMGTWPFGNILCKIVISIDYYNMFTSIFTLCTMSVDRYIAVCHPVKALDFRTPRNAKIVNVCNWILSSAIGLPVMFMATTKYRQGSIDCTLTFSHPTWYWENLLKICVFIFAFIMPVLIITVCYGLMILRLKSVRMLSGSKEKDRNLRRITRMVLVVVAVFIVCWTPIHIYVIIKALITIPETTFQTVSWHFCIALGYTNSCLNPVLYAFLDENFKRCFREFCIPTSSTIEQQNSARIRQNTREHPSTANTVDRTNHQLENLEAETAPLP
hERG, sequence (Q12809 whole entry): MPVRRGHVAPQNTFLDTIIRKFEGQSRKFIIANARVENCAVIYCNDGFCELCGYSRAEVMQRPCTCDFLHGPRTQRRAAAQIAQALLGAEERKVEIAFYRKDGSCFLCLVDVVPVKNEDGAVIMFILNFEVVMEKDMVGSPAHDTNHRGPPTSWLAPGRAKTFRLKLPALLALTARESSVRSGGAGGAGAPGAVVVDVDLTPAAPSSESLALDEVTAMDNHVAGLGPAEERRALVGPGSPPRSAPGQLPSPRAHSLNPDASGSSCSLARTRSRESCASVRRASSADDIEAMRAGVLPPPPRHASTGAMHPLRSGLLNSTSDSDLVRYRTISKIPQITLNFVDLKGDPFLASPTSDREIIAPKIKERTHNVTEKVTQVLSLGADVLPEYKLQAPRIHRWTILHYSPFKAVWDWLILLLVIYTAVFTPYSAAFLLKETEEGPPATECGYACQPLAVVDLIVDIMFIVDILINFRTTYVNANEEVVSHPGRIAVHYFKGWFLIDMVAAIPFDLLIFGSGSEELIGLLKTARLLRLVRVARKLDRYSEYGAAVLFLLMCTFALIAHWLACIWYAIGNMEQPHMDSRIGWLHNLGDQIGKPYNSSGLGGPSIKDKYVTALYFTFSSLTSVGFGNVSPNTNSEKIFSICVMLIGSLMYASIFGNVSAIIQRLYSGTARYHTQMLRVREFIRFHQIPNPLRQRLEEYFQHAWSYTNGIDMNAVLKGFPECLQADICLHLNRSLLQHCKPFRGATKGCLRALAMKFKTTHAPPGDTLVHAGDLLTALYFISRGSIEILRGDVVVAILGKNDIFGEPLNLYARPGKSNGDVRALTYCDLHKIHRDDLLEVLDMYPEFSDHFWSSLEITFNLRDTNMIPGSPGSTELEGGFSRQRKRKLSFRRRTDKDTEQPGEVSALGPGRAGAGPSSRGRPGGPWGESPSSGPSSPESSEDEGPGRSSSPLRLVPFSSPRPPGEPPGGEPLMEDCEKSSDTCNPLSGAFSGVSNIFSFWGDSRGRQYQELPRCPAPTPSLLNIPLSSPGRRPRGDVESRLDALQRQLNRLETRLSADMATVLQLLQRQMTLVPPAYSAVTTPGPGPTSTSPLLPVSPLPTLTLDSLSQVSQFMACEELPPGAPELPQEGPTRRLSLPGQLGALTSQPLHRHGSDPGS
5-HT2B, sequence (P41595 whole entry): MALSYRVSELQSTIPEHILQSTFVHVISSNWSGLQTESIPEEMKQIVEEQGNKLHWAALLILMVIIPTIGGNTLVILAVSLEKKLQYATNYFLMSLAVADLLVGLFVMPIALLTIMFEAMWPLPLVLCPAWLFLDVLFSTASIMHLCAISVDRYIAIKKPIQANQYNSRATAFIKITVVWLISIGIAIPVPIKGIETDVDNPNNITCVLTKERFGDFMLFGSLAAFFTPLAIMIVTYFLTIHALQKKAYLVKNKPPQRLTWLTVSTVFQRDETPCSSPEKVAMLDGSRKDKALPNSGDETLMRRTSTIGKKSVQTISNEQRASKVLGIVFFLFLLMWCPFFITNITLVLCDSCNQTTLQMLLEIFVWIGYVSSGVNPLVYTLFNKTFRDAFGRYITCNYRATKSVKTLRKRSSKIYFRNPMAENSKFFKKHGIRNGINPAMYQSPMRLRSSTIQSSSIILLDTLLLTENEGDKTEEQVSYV

Compound: CC1Cc2oc3ccc(O)cc3c2CCN1C (stereo not drawn)
- EC50 (mouse DOR (mDOR)): 1200 nM
- Emax (mouse DOR (mDOR)): 66%
- EC50 (mouse MOR (mMOR)): 320 nM
- Emax (mouse MOR (mMOR)): 46%
- EC50 (rat KOR (rKOR)): 79 nM
- Emax (rat KOR (rKOR)): 53%

Compound: c1ccc2c3c(oc2c1)CCNCC3 [drawing 161]
- Emax at 10 µM (KOR; CHO, Table 2): 36%
- EC50 (KOR; [1]): ~1200 nM
- Emax at 10 µM (5-HT2B; Table 2): 20%
- EC50 (5-HT2B; Table 2): > 10000 nM
- Emax at 10 µM (5-HT2A; Table 2): 77%
- EC50 (5-HT2A; Table 2): ~1000 nM
- Emax at 10 µM (5-HT2C; Table 2): 90%
- EC50 (5-HT2C; Table 2): < 100 nM

Compound: CN1CCc2oc3ccccc3c2CC1 [drawing 162]
- Emax at 10 µM (KOR; CHO, Table 2): 36%
- EC50 (KOR; [1]): ~4200 nM
- Emax at 10 µM (5-HT2B; Table 2): 4%
- EC50 (5-HT2B; Table 2): > 10000 nM
- Emax at 10 µM (5-HT2A; Table 2): 26%
- EC50 (5-HT2A; Table 2): > 10000 nM
- IC50 (hERG; Table 2, HEK-293): > 10000 nM
- inhibition at 10 µM (hERG; human, HEK-293 cells expressing hERG, probe [3H]Dofetilide, Table 2, at 10 μM, read-out: % inhibition of control specific binding (hERG)): 11%
- Emax at 10 µM (5-HT2C; Table 2): 99%
- EC50 (5-HT2C; Table 2): ~200 nM

Compound: c1ccc2c3c(oc2c1)CCCNC3 [drawing 163]
- Emax at 10 µM (KOR; CHO, Table 2): 45%
- EC50 (KOR; [1]): ~4400 nM
- Emax at 10 µM (5-HT2B; Table 2): 22%
- EC50 (5-HT2B; Table 2): > 10000 nM
- Emax at 10 µM (5-HT2A; Table 2): 26%
- EC50 (5-HT2A; Table 2): ~60000 nM
- Emax at 10 µM (5-HT2C; Table 2): 78%
- EC50 (5-HT2C; Table 2): ~1300 nM

Compound: CN1CCCc2oc3ccccc3c2C1 [drawing 164]
- Emax at 10 µM (KOR; CHO, Table 2): 47%
- EC50 (KOR; [1]): ~3000 nM
- Emax at 10 µM (5-HT2B; Table 2): 3%
- EC50 (5-HT2B; Table 2): > 10000 nM
- Emax at 10 µM (5-HT2A; Table 2): 4%
- EC50 (5-HT2A; Table 2): > 10000 nM
- Emax at 10 µM (5-HT2C; Table 2): 44%
- EC50 (5-HT2C; Table 2): ~14000 nM

Compound: c1ccc2c3c(oc2c1)CCNCC3 [drawing 165]
- IC50 (hSERT): 0.45 ± 0.06 µM
- IC50 (rVMAT2): 1.4 ± 0.23 µM

Compound: CN1CCc2oc3ccccc3c2CC1 [drawing 166]
- IC50 (hSERT): 1.4 ± 0.3 µM
- IC50 (rVMAT2): 4.9 ± 0.94 µM

Compound: c1ccc2c3c(oc2c1)CCCNC3 [drawing 167]
- IC50 (hSERT): 11 ± 2.9 µM
- IC50 (rVMAT2): 0.061 ± 0.01 µM

Compound: CN1CCCc2oc3ccccc3c2C1 [drawing 168]
- IC50 (hSERT): 7.1 ± 2.3 µM
- IC50 (rVMAT2): 15 ± 4.6 µM

Compound: Oc1ccc2oc3c(c2c1)CCNCC3 [drawing 169]
- Emax at 10 µM (5-HT2B; Table 4): 19%
- EC50 (5-HT2B; Table 4): > 10000 nM
- Emax at 10 µM (5-HT2A; Table 4): 72%
- EC50 (5-HT2A; Table 4): 600 nM
- Emax at 10 µM (5-HT2C; Table 4): 93%
- EC50 (5-HT2C; Table 4): 100 nM

Compound: CC1Cc2oc3ccc(O)cc3c2CCN1 (stereo not drawn) [drawing 170]
- Emax at 10 µM (5-HT2A; Table 4): 45%
- EC50 (5-HT2A; Table 4): 1900 nM
- Emax at 10 µM (5-HT2C; Table 4): 86%
- EC50 (5-HT2C; Table 4): 400 nM

Compound: Oc1ccc2oc3c(c2c1)CCN1CCCC3C1 (stereo not drawn) [drawing 171]
- Emax at 10 µM (5-HT2B; Table 4): 5%
- EC50 (5-HT2B; Table 4): 400 nM
- Emax at 10 µM (5-HT2A; Table 4): 1%
- EC50 (5-HT2A; Table 4): > 10000 nM
- IC50 (hERG; Table 4): ~60000 nM
- inhibition at 30 µM (hERG; human, HEK-293 cells expressing hERG, probe [3H]Dofetilide, Table 4, efficacy at 30 μM, read-out: % inhibition of control specific binding (hERG)): 38%
- Emax at 10 µM (5-HT2C; Table 4): < 0%
- EC50 (5-HT2C; Table 4): > 10000 nM

Compound: Oc1ccc2oc3c(c2c1)CCNCC3 [drawing 172]
- Emax at 10 µM (KOR; CHO, Table 5, CAMP Assay): < 0%
- EC50 (KOR; Table 5, CAMP Assay): > 10000 nM

Compound: CC1Cc2oc3ccc(O)cc3c2CCN1 (stereo not drawn) [drawing 173]
- EC50 (mouse DOR (mDOR)): 620 nM
- Emax (mouse DOR (mDOR)): 45%
- EC50 (mouse MOR (mMOR)): 200 nM
- Emax (mouse MOR (mMOR)): 16%
- Emax (KOR; CHO, Table 5, CAMP Assay): 96%
- EC50 (KOR; Table 5, CAMP Assay): 60 nM
- EC50 (rat KOR (rKOR)): 130 nM
- Emax (rat KOR (rKOR)): 36%

Compound: Oc1ccc2oc3c(c2c1)CCN1CCCC3C1 (stereo not drawn) [drawing 175]
- EC50 (mouse DOR (mDOR)): 120 nM
- Emax (mouse DOR (mDOR)): 55%
- EC50 (mouse MOR (mMOR)): 110 nM
- Emax (mouse MOR (mMOR)): 44%
- Emax (KOR; CHO, Table 5, CAMP Assay): 91%
- EC50 (KOR; Table 5, CAMP Assay): 50 nM
- EC50 (rat KOR (rKOR)): 140 nM
- Emax (rat KOR (rKOR)): 30%

Reference: patent US20230382919A1, “OXA- IBOGAINE INSPIRED ANALOGUES FOR TREATMENT OF NEUROLOGICAL AND PSYCHIATRIC DISORDERS” (The Trustees of Columbia University in the City of New York, priority 2021, published 2023)
